# Test results taken from ChEMBL document CHEMBL4270673, “Receptor-Ligand Interaction Measured by Inductively Coupled Plasma Mass Spectrometry and Selenium Labeling” (J Med Chem, 2018).
# Where a SMILES comes first, the peptide text is derived from it. [ ]: non-standard residue; d: D form. The star is where a group is joined. SeMet = C[Se]CC[C@H](N)C(=O)O; X1 = O=C(C[Se]c1ccccc1)*; Ahx = NCCCCCC(=O)O
# Assays:
# Vasopressin V1a receptor [1] = biological target: T1, Vasopressin V1a receptor (Homo sapiens, UniProt P37288); experiment: Binding affinity to human V1A receptor expressed in CHO cells after 4 hrs by RP-LC-ICPMS analysis; assay type: cell-based
# Target sequence in this assay (P37288 whole entry): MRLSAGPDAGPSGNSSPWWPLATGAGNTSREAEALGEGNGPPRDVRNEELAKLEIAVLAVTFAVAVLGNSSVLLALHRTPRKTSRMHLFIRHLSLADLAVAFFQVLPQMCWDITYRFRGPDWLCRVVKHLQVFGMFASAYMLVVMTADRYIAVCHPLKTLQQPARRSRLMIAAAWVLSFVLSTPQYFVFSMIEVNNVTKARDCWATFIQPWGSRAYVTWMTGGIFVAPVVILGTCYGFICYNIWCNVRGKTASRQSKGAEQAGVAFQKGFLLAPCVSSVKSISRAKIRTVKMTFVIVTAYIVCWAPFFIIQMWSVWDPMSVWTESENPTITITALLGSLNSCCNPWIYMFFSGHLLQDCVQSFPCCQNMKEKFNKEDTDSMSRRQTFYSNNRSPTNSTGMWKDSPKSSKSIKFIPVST
# Vasopressin V1a receptor [2] = biological target: T1, Vasopressin V1a receptor; experiment: Displacement of [Se-Se]-AVP from human V1A receptor expressed in CHO cells after 4 hrs by RP-LC-ICPMS analysis; assay type: cell-based
# Target sequence in this assay (P37288 whole entry): as above
# Vasopressin V1a receptor [3] = biological target: T1, Vasopressin V1a receptor; experiment: Binding affinity to human V1A receptor expressed in CHO cells assessed per million cells after 4 hrs by RP-LC-ICPMS analysis; assay type: cell-based
# Target sequence in this assay (P37288 whole entry, looked up): as the sequence (P37288 whole entry) above
# Vasopressin V1a receptor [4] = biological target: T1, Vasopressin V1a receptor; experiment: Displacement of [125I]OH-Phpa-LVA from human V1A receptor expressed in CHO cells after 4 hrs by gamma counter analysis; assay type: cell-based
# Target sequence in this assay (P37288 whole entry): as above
# Vasopressin V1a receptor [5] = biological target: T1, Vasopressin V1a receptor; experiment: Displacement of [Sez6]-HO-Phpa-LVA from human V1A receptor expressed in CHO cells after 4 hrs by RP-LC-ICPMS analysis; assay type: cell-based
# Target sequence in this assay (P37288 whole entry): as above
# [6] = biological target: T2, Gastrin/cholecystokinin type B receptor (Homo sapiens, UniProt P32239); experiment: Displacement of non-sulfated CCK-8 from CCKB receptor (unknown origin) expressed in HEK cells after 4 hrs by RP-LC-ICPMS analysis; assay type: cell-based
# T2 sequence (P32239 whole entry): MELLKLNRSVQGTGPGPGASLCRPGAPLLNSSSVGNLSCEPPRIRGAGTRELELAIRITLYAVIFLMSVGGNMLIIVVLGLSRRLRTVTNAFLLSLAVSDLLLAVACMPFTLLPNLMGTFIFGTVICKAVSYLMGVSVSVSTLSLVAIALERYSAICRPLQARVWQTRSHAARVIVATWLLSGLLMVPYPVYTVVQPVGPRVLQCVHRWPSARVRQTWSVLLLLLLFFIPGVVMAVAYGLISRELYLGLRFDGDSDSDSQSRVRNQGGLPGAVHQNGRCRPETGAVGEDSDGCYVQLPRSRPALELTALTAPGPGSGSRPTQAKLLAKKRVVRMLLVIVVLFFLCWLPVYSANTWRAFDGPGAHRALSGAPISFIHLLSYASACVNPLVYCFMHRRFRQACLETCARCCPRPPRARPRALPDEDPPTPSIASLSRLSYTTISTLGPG
# [7] = biological target: T2, Gastrin/cholecystokinin type B receptor; experiment: Binding affinity to CCKB receptor (unknown origin) expressed in HEK cells after 4 hrs by RP-LC-ICPMS analysis; assay type: cell-based
# Vasopressin V1a receptor [8] = biological target: T1, Vasopressin V1a receptor; experiment: Binding affinity to human V1A receptor expressed in CHO cell membranes
# Target sequence in this assay (P37288 whole entry): as the sequence (P37288 whole entry) above
# Vasopressin V1a receptor [9] = biological target: T1, Vasopressin V1a receptor; experiment: Displacement of [Ph-Se-acetyl]-LVA from human V1A receptor expressed in CHO cells after 4 hrs by RP-LC-ICPMS analysis; assay type: cell-based
# Target sequence in this assay (P37288 whole entry): as the sequence (P37288 whole entry) above
Ki (Vasopressin V1a receptor [2]),Bmax (Vasopressin V1a receptor [3]),Ki (Vasopressin V1a receptor [4]),SMILES,other results
0.4 nM,845 fmol,0.9 nM,COc1ccc(C[C@@H](NC(=O)CCc2ccc(O)cc2)C(=O)N[C@@H](Cc2ccccc2)C(=O)N[C@@H](CCC(N)=O)C(=O)N[C@@H](CC(N)=O)C(=O)N[C@@H](CCCNC(=N)N)C(=O)N2C[Se]C[C@H]2C(=O)N[C@@H](CCCNC(=N)N)C(N)=O)cc1,Kd (Vasopressin V1a receptor [1]): 0.45 nM; Ki (Vasopressin V1a receptor [5]): 3.8 nM
,,,CSCC[C@H](NC(=O)[C@H](Cc1c[nH]c2ccccc12)NC(=O)CCCCCNC(=O)[C@H](CCCNC(=N)N)NC(=O)[C@H](CC[Se]C)NC(C)=O)C(=O)N[C@@H](CC(=O)O)C(=O)N[C@@H](Cc1ccccc1)C(N)=O (Ac-[SeMet]R[Ahx]WMDF-NH2),Ki [6]: 3.91 nM; Kd [7]: 45.5 nM
,,1280 nM,N=C(N)NCCC[C@H](NC(=O)[C@@H]1CCCN1C(=O)[C@@H]1C[Se]C[C@H](N)C(=O)N[C@@H](Cc2ccc(O)cc2)C(=O)N[C@@H](Cc2ccccc2)C(=O)N[C@@H](CCC(N)=O)C(=O)N[C@@H](CC(N)=O)C(=O)N1)C(=O)NCC(N)=O,
2950 nM,,304 nM,CCOc1ccc2c(c1)[C@]1(CC[C@H](OCCN3CCOCC3)CC1)C(=O)N2S(=O)(=O)c1ccc(C(=O)NC(C)(C)C)cc1OC,
,696 fmol,0.9 nM,COc1ccc(C[C@@H](NC(=O)C[Se]c2ccc(O)cc2)C(=O)N[C@@H](Cc2ccccc2)C(=O)N[C@@H](CCC(N)=O)C(=O)N[C@@H](CC(N)=O)C(=O)N[C@@H](CCCNC(=N)N)C(=O)N2CCC[C@H]2C(=O)N[C@@H](CCCNC(=N)N)C(N)=O)cc1,Kd (Vasopressin V1a receptor [1]): 0.32 nM; Ki (Vasopressin V1a receptor [9]): 12.9 nM
0.2 nM,,0.8 nM,COc1ccc(C[C@@H](NC(=O)CCc2ccc(O)cc2)C(=O)N[C@@H](Cc2ccccc2)C(=O)N[C@@H](CCC(N)=O)C(=O)N[C@@H](CC(N)=O)C(=O)N[C@@H](CCCNC(=N)N)C(=O)N2CCC[C@H]2C(=O)N[C@@H](CCCNC(=N)N)C(N)=O)cc1,
,,,CSCC[C@H](NC(=O)[C@H](Cc1c[nH]c2ccccc12)NC(=O)CCCCCNC(=O)[C@H](CCCNC(=N)N)NC(=O)C[Se]c1ccccc1)C(=O)N[C@@H](CC(=O)O)C(=O)N[C@@H](Cc1ccccc1)C(N)=O (X1-R[Ahx]WMDF-NH2),Ki [6]: 7.93 nM; Kd [7]: 29.3 nM

SMILES,Ki (Vasopressin V1a receptor [2]),Bmax (Vasopressin V1a receptor [3]),Ki (Vasopressin V1a receptor [4]),other results
N=C(N)NCCC[C@H](NC(=O)[C@@H]1CCCN1C(=O)[C@@H]1C[Se][Se]C[C@H](N)C(=O)N[C@@H](Cc2ccc(O)cc2)C(=O)N[C@@H](Cc2ccccc2)C(=O)N[C@@H](CCC(N)=O)C(=O)N[C@@H](CC(N)=O)C(=O)N1)C(=O)NCC(N)=O,1.7 nM,,0.7 nM,Kd (Vasopressin V1a receptor [8]): 0.6 to 3 nM
N=C(N)NCCC[C@@H](NC(=O)[C@@H]1CCCN1C(=O)[C@@H]1C[Se][Se]C[C@H](N)C(=O)N[C@@H](Cc2ccc(O)cc2)C(=O)N[C@@H](Cc2ccccc2)C(=O)N[C@@H](CCC(N)=O)C(=O)N[C@@H](CC(N)=O)C(=O)N1)C(=O)NCC(N)=O,,1060 fmol,,
